In ChEMBL document CHEMBL3885881, “DrugMatrix”:

Species on record: Rattus norvegicus
Experiment: DrugMatrix - Regimen: Daily Repeat
Type: toxicity, organism-based, Sprague-Dawley
Design: regimen Daily Repeat, gender Male, age 6-8 weeks
Conditions: in vivo, po, route oral GAVAGE, […]; for ABSOLUTE BASOPHIL / ABSOLUTE EOSINOPHIL / ABSOLUTE LYMPHOCYTE / ABSOLUTE MONOCYTE / ABSOLUTE SEGMENTED NEUTROPHIL / BASOPHIL / EOSINOPHIL / ERYTHROCYTE COUNT / HEMATOCRIT / HEMOGLOBIN / LEUKOCYTE COUNT / LYMPHOCYTE / MEAN CORPUSCULAR HEMOGLOBIN / MEAN CORPUSCULAR HEMOGLOBIN CONCENTRATION / MEAN CORPUSCULAR VOLUME / MONOCYTE / NEUTROPHIL / NUCLEATED RED BLOOD CELLS / PLATELET COUNT: tissue Blood; for ALANINE AMINOTRANSFERASE / ALBUMIN / ALKALINE PHOSPHATASE / ASPARTATE AMINOTRANSFERASE / BLOOD UREA NITROGEN / CARBON DIOXIDE / CHLORIDE / CHOLESTEROL / CREATINE PHOSPHOKINASE / CREATININE / GLUCOSE / LACTATE DEHYDROGENASE / LIPASE / PHOSPHORUS / POTASSIUM / SODIUM / TOTAL BILIRUBIN / TOTAL PROTEIN / URIC ACID: tissue Plasma
[1] = 0 mg/kg, 72 h, dose level Control, time 3 day
[2] = 0 mg/kg, 120 h, dose level Control, time 5 day
[3] = 50 mg/kg, 72 h, dose level Low, time 3 day

For COC(=O)Nc1nc2ccc(C(=O)c3ccccc3)cc2[nH]1 [MEBENDAZOLE], the “ABSOLUTE BASOPHIL” value [1] was 0 CELLS/uL, the “ABSOLUTE EOSINOPHIL” value [1] was 0 CELLS/uL and the “ABSOLUTE LYMPHOCYTE” value [1] was 9244.83 CELLS/uL. For the same compound, the “ABSOLUTE MONOCYTE” value [1] was 102 CELLS/uL, the “ABSOLUTE SEGMENTED NEUTROPHIL” value [1] was 869.83 CELLS/uL and the BASOPHIL [1] was 0%. For the same compound, the EOSINOPHIL [1] was 0%, the “ERYTHROCYTE COUNT” value [1] was 5.43 x10E6/uL and the HEMATOCRIT [1] was 34.03%. For the same compound, the HEMOGLOBIN [1] was 13.27 G/DL, the “LEUKOCYTE COUNT” value [1] was 10.22 x10E3/uL and the LYMPHOCYTE [1] was 90.33%. The “MEAN CORPUSCULAR HEMOGLOBIN” value [1] was 24.48 pg, the “MEAN CORPUSCULAR HEMOGLOBIN CONCENTRATION” value [1] was 39.03 G/DL and the “MEAN CORPUSCULAR VOLUME” value [1] was 62.75 fL. The MONOCYTE [1] was 1%, the NEUTROPHIL [1] was 8.67% and the “NUCLEATED RED BLOOD CELLS” value [1] was 0.17 /100WBC. The “PLATELET COUNT” value [1] was 989 x10E3/uL, the “ALANINE AMINOTRANSFERASE” value [1] was 77 u/L and the ALBUMIN [1] was 3.97 G/DL. For the same compound, the “ALKALINE PHOSPHATASE” value [1] was 464.83 u/L, the “ASPARTATE AMINOTRANSFERASE” value [1] was 89.83 u/L and the “BLOOD UREA NITROGEN” value [1] was 12.17 mg/dL. For the same compound, the “CARBON DIOXIDE” value [1] was 34.17 mmol/L, the CHLORIDE [1] was 98.33 MEQ/L and the CHOLESTEROL [1] was 75.17 mg/dL. For the same compound, the “CREATINE PHOSPHOKINASE” value [1] was 367.67 u/L, the CREATININE [1] was 0.16 mg/dL and the GLUCOSE [1] was 142.67 mg/dL. The “LACTATE DEHYDROGENASE” value [1] was 139.33 u/L, the LIPASE [1] was 9.5 u/L and the PHOSPHORUS [1] was 10.85 mg/dL. For the same compound, the POTASSIUM [1] was 6.38 MEQ/L, the SODIUM [1] was 143.2 MEQ/L and the “TOTAL BILIRUBIN” value [1] was 0.2 mg/dL. For the same compound, the “TOTAL PROTEIN” value [1] was 5.77 G/DL, the “URIC ACID” value [1] was 0.7 mg/dL and the “ABSOLUTE BASOPHIL” value [2] was 0 CELLS/uL. The “ABSOLUTE EOSINOPHIL” value [2] was 0 CELLS/uL, the “ABSOLUTE LYMPHOCYTE” value [2] was 8295.33 CELLS/uL and the “ABSOLUTE MONOCYTE” value [2] was 84.67 CELLS/uL. For the same compound, the “ABSOLUTE SEGMENTED NEUTROPHIL” value [2] was 970 CELLS/uL, the BASOPHIL [2] was 0% and the EOSINOPHIL [2] was 0%. For the same compound, the “ERYTHROCYTE COUNT” value [2] was 5.74 x10E6/uL, the HEMATOCRIT [2] was 36.22% and the HEMOGLOBIN [2] was 13.85 G/DL. For the same compound, the “LEUKOCYTE COUNT” value [2] was 9.35 x10E3/uL, the LYMPHOCYTE [2] was 88.67% and the “MEAN CORPUSCULAR HEMOGLOBIN” value [2] was 24.13 pg. For the same compound, the “MEAN CORPUSCULAR HEMOGLOBIN CONCENTRATION” value [2] was 38.25 G/DL, the “MEAN CORPUSCULAR VOLUME” value [2] was 63.08 fL and the MONOCYTE [2] was 1%. The NEUTROPHIL [2] was 10.33%, the “NUCLEATED RED BLOOD CELLS” value [2] was 0.17 /100WBC and the “PLATELET COUNT” value [2] was 883.83 x10E3/uL. The “ALANINE AMINOTRANSFERASE” value [2] was 64.5 u/L, the ALBUMIN [2] was 4.12 G/DL and the “ALKALINE PHOSPHATASE” value [2] was 425.67 u/L. The “ASPARTATE AMINOTRANSFERASE” value [2] was 88.5 u/L, the “BLOOD UREA NITROGEN” value [2] was 14.17 mg/dL and the “CARBON DIOXIDE” value [2] was 30.5 mmol/L. The CHLORIDE [2] was 100.33 MEQ/L, the CHOLESTEROL [2] was 55.33 mg/dL and the “CREATINE PHOSPHOKINASE” value [2] was 287.17 u/L. For the same compound, the CREATININE [2] was 0.2 mg/dL, the GLUCOSE [2] was 162.83 mg/dL and the “LACTATE DEHYDROGENASE” value [2] was 111.33 u/L. The LIPASE [2] was 10.5 u/L, the PHOSPHORUS [2] was 10.32 mg/dL and the POTASSIUM [2] was 5.13 MEQ/L. The SODIUM [2] was 143.93 MEQ/L, the “TOTAL BILIRUBIN” value [2] was 0.17 mg/dL and the “TOTAL PROTEIN” value [2] was 5.9 G/DL. The “URIC ACID” value [2] was 0.77 mg/dL, the “ABSOLUTE BASOPHIL” value [3] was 0 CELLS/uL and the “ABSOLUTE EOSINOPHIL” value [3] was 0 CELLS/uL. The “ABSOLUTE LYMPHOCYTE” value [3] was 11176.67 CELLS/uL, the “ABSOLUTE MONOCYTE” value [3] was 118.33 CELLS/uL and the “ABSOLUTE SEGMENTED NEUTROPHIL” value [3] was 1305 CELLS/uL. The BASOPHIL [3] was 0%, the EOSINOPHIL [3] was 0% and the “ERYTHROCYTE COUNT” value [3] was 5.06 x10E6/uL. For the same compound, the HEMATOCRIT [3] was 32%, the HEMOGLOBIN [3] was 12.6 G/DL and the “LEUKOCYTE COUNT” value [3] was 12.6 x10E3/uL. The LYMPHOCYTE [3] was 89.33%, the “MEAN CORPUSCULAR HEMOGLOBIN” value [3] was 24.93 pg and the “MEAN CORPUSCULAR HEMOGLOBIN CONCENTRATION” value [3] was 39.43 G/DL. For the same compound, the “MEAN CORPUSCULAR VOLUME” value [3] was 63.27 fL, the MONOCYTE [3] was 1% and the NEUTROPHIL [3] was 9.67%. The “NUCLEATED RED BLOOD CELLS” value [3] was 0 /100WBC, the “PLATELET COUNT” value [3] was 983 x10E3/uL and the “ALANINE AMINOTRANSFERASE” value [3] was 78 u/L. The ALBUMIN [3] was 3.87 G/DL, the “ALKALINE PHOSPHATASE” value [3] was 423.67 u/L and the “ASPARTATE AMINOTRANSFERASE” value [3] was 86.33 u/L. For the same compound, the “BLOOD UREA NITROGEN” value [3] was 12.33 mg/dL, the “CARBON DIOXIDE” value [3] was 32 mmol/L and the CHLORIDE [3] was 100 MEQ/L. The CHOLESTEROL [3] was 74.67 mg/dL, the “CREATINE PHOSPHOKINASE” value [3] was 274.33 u/L and the CREATININE [3] was 0.25 mg/dL. For the same compound, the GLUCOSE [3] was 142.67 mg/dL, the “LACTATE DEHYDROGENASE” value [3] was 145 u/L and the LIPASE [3] was 11 u/L. It also gave a PHOSPHORUS [3] of 11.2 mg/dL, a POTASSIUM [3] of 5.98 MEQ/L and an SODIUM [3] of 144.33 MEQ/L. For the same compound, the “TOTAL BILIRUBIN” value [3] was 0.17 mg/dL, the “TOTAL PROTEIN” value [3] was 5.53 G/DL and the “URIC ACID” value [3] was 0.77 mg/dL.
